In ChEMBL document CHEMBL1139829, “2-Benzenesulfonyl-8a-benzyl-hexahydro-2H-isoquinolin-6-ones as selective glucocorticoid receptor antagonists” (Bioorg Med Chem Lett, 2007) one finds Ki and inhibition data, which are given here for 50 compounds.

What is called Ki is a dissociation constant, usually derived from enzyme kinetics or from competition with a known ligand. One may read the inhibition as the relative decrease from the control value, in per cent.

The target of data set [1] is T1, Glucocorticoid receptor (Homo sapiens, UniProt P04150).
T1 sequence (P04150 whole entry): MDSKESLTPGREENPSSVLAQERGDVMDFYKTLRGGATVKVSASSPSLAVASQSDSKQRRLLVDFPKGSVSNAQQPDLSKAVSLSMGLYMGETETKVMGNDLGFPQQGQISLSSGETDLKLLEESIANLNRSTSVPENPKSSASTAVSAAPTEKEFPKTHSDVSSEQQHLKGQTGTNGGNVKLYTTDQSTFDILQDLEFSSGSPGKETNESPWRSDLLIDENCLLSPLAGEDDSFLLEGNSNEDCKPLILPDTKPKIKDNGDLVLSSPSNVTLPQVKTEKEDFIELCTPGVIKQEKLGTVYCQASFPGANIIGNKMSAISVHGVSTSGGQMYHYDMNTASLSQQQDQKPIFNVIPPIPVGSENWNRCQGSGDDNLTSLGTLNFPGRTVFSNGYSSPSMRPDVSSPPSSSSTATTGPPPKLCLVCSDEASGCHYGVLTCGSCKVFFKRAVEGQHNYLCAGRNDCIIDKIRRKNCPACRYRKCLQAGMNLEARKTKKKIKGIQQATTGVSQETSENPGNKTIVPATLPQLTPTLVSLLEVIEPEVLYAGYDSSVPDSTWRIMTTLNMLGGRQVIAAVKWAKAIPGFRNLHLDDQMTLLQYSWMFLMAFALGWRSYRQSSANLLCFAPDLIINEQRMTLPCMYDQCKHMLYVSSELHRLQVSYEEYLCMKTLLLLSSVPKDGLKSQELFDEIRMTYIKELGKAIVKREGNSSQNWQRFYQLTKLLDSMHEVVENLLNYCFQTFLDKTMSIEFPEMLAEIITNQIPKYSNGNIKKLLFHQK
Kind of data set: Displacement of [3H]dexamethasone from human glucocorticoid receptor expressed in recombinant baculovirus. Background: In a radioligand displacement assay an active substance lowers the binding of a labelled ligand.

The target of data set [2] is T1, Glucocorticoid receptor. Kind of data set: Antagonist activity at human glucocorticoid receptor in SW1353 cells assessed as inhibition of dexamethasone-induced luciferase expression by MMTV5 reporter gene assay. It counts as functional, cell-based. Background: A reporter such as luciferase makes a cellular process visible.
In data set [3] the target is T1, Glucocorticoid receptor. Kind of data set: Binding affinity to glucocorticoid receptor in SW1353 cells by whole-cell binding assay. It counts as cell-based.
The target in data set [4] is CYP2C9 (Homo sapiens, UniProt P11712). The experiment in a line: Inhibition of CYP2C9 at 1 uM. Type of data set: ADME.
Data set [5] deals with CYP2C19 (Homo sapiens, UniProt P33261). The experiment in a line: Inhibition of CYP2C19 at 1 uM. Type of data set: ADME.
Data set [6] has as its target CYP2D6 (Homo sapiens, UniProt P10635). The experiment in a line: Inhibition of CYP2D6 at 1 uM. It counts as ADME.

Chain of CYP2C19 (P33261 whole entry): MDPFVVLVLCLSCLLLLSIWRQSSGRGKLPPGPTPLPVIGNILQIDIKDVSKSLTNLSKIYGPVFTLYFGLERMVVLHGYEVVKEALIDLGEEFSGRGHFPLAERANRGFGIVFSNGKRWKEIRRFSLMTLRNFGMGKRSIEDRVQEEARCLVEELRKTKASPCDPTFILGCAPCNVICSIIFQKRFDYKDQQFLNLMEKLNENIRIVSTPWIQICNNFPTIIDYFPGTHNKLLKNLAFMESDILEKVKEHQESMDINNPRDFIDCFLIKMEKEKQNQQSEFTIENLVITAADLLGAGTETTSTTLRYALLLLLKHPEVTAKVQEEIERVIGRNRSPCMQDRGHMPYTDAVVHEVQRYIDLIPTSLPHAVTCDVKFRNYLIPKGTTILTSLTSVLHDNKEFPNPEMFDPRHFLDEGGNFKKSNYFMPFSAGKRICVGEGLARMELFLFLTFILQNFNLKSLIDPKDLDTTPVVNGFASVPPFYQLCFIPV
Chain of CYP2C9 (P11712 whole entry): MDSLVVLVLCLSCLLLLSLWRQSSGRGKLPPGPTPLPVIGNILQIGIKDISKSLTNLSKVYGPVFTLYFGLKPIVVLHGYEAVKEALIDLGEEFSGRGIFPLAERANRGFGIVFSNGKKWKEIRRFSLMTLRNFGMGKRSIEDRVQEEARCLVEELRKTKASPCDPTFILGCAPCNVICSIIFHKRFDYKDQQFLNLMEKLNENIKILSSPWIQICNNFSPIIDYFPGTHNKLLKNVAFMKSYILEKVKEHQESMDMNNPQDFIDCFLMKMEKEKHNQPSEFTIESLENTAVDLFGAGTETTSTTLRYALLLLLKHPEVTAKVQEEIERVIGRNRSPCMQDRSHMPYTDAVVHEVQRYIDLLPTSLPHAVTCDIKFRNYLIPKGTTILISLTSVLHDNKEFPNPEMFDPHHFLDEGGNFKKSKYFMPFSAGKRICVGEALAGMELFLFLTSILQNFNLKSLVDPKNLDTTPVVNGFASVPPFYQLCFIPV
Chain of CYP2D6 (P10635 whole entry): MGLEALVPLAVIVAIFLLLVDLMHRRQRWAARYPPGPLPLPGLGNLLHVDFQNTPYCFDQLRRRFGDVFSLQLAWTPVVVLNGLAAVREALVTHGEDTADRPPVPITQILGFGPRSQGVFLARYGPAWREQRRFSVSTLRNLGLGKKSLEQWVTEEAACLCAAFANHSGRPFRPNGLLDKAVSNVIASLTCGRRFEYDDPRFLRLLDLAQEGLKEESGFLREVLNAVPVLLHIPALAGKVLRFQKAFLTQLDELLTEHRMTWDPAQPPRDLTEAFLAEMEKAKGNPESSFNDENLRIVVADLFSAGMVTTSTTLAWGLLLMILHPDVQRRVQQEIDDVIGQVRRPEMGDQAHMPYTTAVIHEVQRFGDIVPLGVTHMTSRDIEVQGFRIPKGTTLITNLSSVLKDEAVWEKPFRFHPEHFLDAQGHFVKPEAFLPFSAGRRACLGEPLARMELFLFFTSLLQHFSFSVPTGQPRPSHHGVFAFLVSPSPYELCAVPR

As for `CC(C)(C)c1ccc(S(=O)(=O)N2CCC3=CC(=O)CCC3(Cc3ccc(N4CCOCC4)cc3)C2)cc1` (centres undefined), the inhibition constant Ki in data set [1] amounted to 10 nM; in data set [2] it was 400 nM.

Turning to `COc1ccc(N2CCC3=CC(=O)CCC3(Cc3ccccc3)C2)cc1` (centres undefined), the Ki in data set [1] is above 5000 nM.

In the case of `CC(C)(C)c1ccc(S(=O)(=O)N2CCC3=CC(=O)CC[C@]3(Cc3ccccc3)C2)cc1`, the Ki in data set [1] was 4 nM; in data set [2], 200 nM.

For `O=C1C=C2CCN(S(=O)(=O)c3ccc(-c4ccccc4)cc3)CC2(Cc2ccccc2)CC1` (centres undefined), in data set [1], the Ki worked out at 55 nM.

Turning to `CS(=O)(=O)Nc1cccc(S(=O)(=O)N2CCC3=CC(=O)CCC3(Cc3ccccc3)C2)c1` (centres undefined), the Ki in data set [1] was 2100 nM.

As to `O=C1C=C2CCN(S(=O)(=O)c3ccc(N4CCOCC4)cc3)CC2(Cc2ccccc2)CC1` (centres undefined), in data set [1], the Ki amounted to 64 nM.

For `CC(C)(C)c1ccc(S(=O)(=O)N2CCC3=CC(=O)CCC3(Cc3ccc(Br)cc3)C2)cc1` (centres undefined), the inhibitory constant (Ki) in data set [1] amounted to 9 nM; in data set [2], 200 nM.

Take `COc1cccc(CC23CCC(=O)C=C2CCN(S(=O)(=O)c2ccc(C(C)(C)C)cc2)C3)c1` (centres undefined): the inhibition constant Ki in data set [1] amounted to 76 nM.

Consider `COc1ccc(C[C@]23CCC(=O)C=C2CCN(S(=O)(=O)c2ccc(C(C)(C)C)cc2)C3)cc1`, for which the Ki in data set [1] was 4 nM; in data set [2], 200 nM; in data set [3] it was 352 nM.

For the compound `CC(C)(C)c1ccc(S(=O)(=O)N2CCC3=CC(=O)CC[C@@]3(Cc3ccccc3)C2)cc1`, in data set [1], the Ki is above 10000 nM.

As to `CC#C[C@@]1(O)CC[C@@]2(Cc3ccccc3)c3ccc(O)cc3CC[C@@H]2C1`, the results for the Ki in data set [1], in data set [2] and in data set [3] were 0.6 nM, 4 nM and 5.5 nM, respectively.

With `CC(C)(C)c1ccc(S(=O)(=O)N2CCC3=CC(=O)CCC3(Cc3ccc(-c4ccncc4)cc3)C2)cc1` (racemic), the inhibition constant Ki in data set [1] came to 2 nM; in data set [2] it was 180 nM. The results for the inhibition at 1 µM in data set [4], in data set [5] and in data set [6] were 76%, 61% and 44%, respectively.

As to `CC(C)(C)c1ccc(S(=O)(=O)N2CCC3=CC(=O)CCC3(Cc3ccc(N4CCCCC4)cc3)C2)cc1` (racemic), the Ki is 9 nM in data set [1] and above 1000 nM in data set [2].

With `CCCCS(=O)(=O)N1CCC2=CC(=O)CCC2(Cc2ccccc2)C1` (racemic), the Ki in data set [1] is above 10000 nM.

On to `O=C1C=C2CCN(Cc3ccccc3)CC2(Cc2ccccc2)CC1` (racemic), for which the Ki in data set [1] was found to be 3700 nM.

As to `O=C1C=C2CCN(S(=O)(=O)c3cccc(Cl)c3)CC2(Cc2ccccc2)CC1` (racemic), in data set [1], the Ki was determined as 432 nM.

On to `O=C1C=C2CCN(S(=O)(=O)c3ccc(Cl)cc3)CC2(Cc2ccccc2)CC1` (racemic), for which the Ki in data set [1] turned out to be 193 nM.

On to `CC(C)(C)c1ccc(S(=O)(=O)N2CCC3=CC(=O)CCC3(Cc3ccccc3)C2)cc1` (racemic), for which the results for the Ki in data set [1] and in data set [2] were 14 nM and above 1000 nM, respectively.

As for `COc1ccc(CN2CCC3=CC(=O)CCC3(Cc3ccccc3)C2)cc1` (racemic), the Ki in data set [1] is 2250 nM.

For the compound `O=C1C=C2CCN(Cc3ccncc3)CC2(Cc2ccccc2)CC1` (racemic), the Ki in data set [1] is above 10000 nM.

Turning to `O=C1C=C2CCN(S(=O)(=O)c3ccccc3C(F)(F)F)CC2(Cc2ccccc2)CC1` (racemic), the Ki in data set [1] came to 4450 nM.

As to `CS(=O)(=O)Nc1ccccc1S(=O)(=O)N1CCC2=CC(=O)CCC2(Cc2ccccc2)C1` (racemic), the Ki in data set [1] is 1950 nM.

Turning to `O=C1C=C2CCN(S(=O)(=O)c3cccc([N+](=O)[O-])c3)CC2(Cc2ccccc2)CC1` (racemic), the Ki in data set [1] is 3000 nM.

For `O=C1C=C2CCN(S(=O)(=O)c3ccc([N+](=O)[O-])cc3)CC2(Cc2ccccc2)CC1` (racemic), in data set [1], the Ki came to 1250 nM.

Consider `COc1cccc(S(=O)(=O)N2CCC3=CC(=O)CCC3(Cc3ccccc3)C2)c1` (racemic), for which the Ki in data set [1] is 196 nM.

Consider `CS(=O)(=O)Nc1ccc(S(=O)(=O)N2CCC3=CC(=O)CCC3(Cc3ccccc3)C2)cc1` (racemic), for which the Ki in data set [1] was 950 nM.

Take `CCCCC(=O)N1CCC2=CC(=O)CCC2(Cc2ccccc2)C1` (racemic): in data set [1], the Ki is above 10000 nM.

For `O=C1C=C2CCN(C(=O)Nc3ccccc3)CC2(Cc2ccccc2)CC1` (racemic), the inhibition constant (Ki) in data set [1] was above 10000 nM.

With `COc1ccc(S(=O)(=O)N2CCC3=CC(=O)CCC3(Cc3ccccc3)C2)cc1` (racemic), the inhibition constant Ki in data set [1] was determined as 216 nM.

As to `COc1ccc(S(=O)(=O)N2CCC3=CC(=O)CCC3(Cc3ccccc3)C2)cc1OC` (racemic), the inhibitory constant (Ki) in data set [1] is 1300 nM.

Take `O=C1C=C2CCN(S(=O)(=O)c3ccc(Oc4ccccc4)cc3)CC2(Cc2ccccc2)CC1` (racemic): the Ki in data set [1] turned out to be 163 nM.

For the compound `CC(=O)Nc1ccc(S(=O)(=O)N2CCC3=CC(=O)CCC3(Cc3ccccc3)C2)cc1` (racemic), the Ki in data set [1] was determined as 750 nM.

For `CN(C)c1ccc(S(=O)(=O)N2CCC3=CC(=O)CCC3(Cc3ccccc3)C2)cc1` (racemic), the Ki in data set [1] was 113 nM.

As for `CC(C)(C)c1ccc(S(=O)(=O)N2CCC3=CC(=O)CCC3(Cc3ccc([N+](=O)[O-])cc3)C2)cc1` (racemic), the Ki in data set [1] is 45 nM.

Turning to `CN(C)c1ccc(CC23CCC(=O)C=C2CCN(S(=O)(=O)c2ccc(C(C)(C)C)cc2)C3)cc1` (racemic), the Ki in data set [1] was 15 nM; in data set [2] it was above 1000 nM.

For `CC(C)(C)c1ccc(S(=O)(=O)N2CCC3=CC(=O)CCC3(Cc3ccc(C#N)cc3)C2)cc1` (racemic), the inhibition constant Ki in data set [1] came to 65 nM.

For `CC(C)(C)c1ccc(S(=O)(=O)N2CCC3=CC(=O)CCC3(Cc3ccc(N)cc3)C2)cc1` (racemic), the inhibitory constant (Ki) in data set [1] is 99 nM.

Turning to `CC(C)(C)c1ccc(S(=O)(=O)N2CCC3=CC(=O)CCC3(Cc3ccc(NS(C)(=O)=O)cc3)C2)cc1` (racemic), the inhibition constant (Ki) is 13 nM in data set [1] and above 1000 nM in data set [2].

As to `CN(C)S(=O)(=O)Nc1ccc(CC23CCC(=O)C=C2CCN(S(=O)(=O)c2ccc(C(C)(C)C)cc2)C3)cc1` (racemic), the Ki in data set [1] worked out at 13 nM; in data set [2], 323 nM.

As to `N#Cc1ccccc1S(=O)(=O)N1CCC2=CC(=O)CCC2(Cc2ccccc2)C1` (racemic), the Ki in data set [1] stood at 1000 nM.

Turning to `O=C1C=C2CCN(S(=O)(=O)c3ccc(F)cc3)CC2(Cc2ccccc2)CC1` (racemic), the inhibition constant (Ki) in data set [1] turned out to be 800 nM.

Turning to `COc1cccc(OC)c1S(=O)(=O)N1CCC2=CC(=O)CCC2(Cc2ccccc2)C1` (racemic), the Ki in data set [1] is above 10000 nM.

In the case of `O=C1C=C2CCN(S(=O)(=O)c3ccccc3)CC2(Cc2ccccc2)CC1` (racemic), the inhibition constant (Ki) in data set [1] was 225 nM.

Take `O=C1C=C2CCN(S(=O)(=O)Nc3ccccc3)CC2(Cc2ccccc2)CC1` (racemic): the inhibitory constant (Ki) in data set [1] turned out to be 1200 nM.

With `CS(=O)(=O)c1ccc(S(=O)(=O)N2CCC3=CC(=O)CCC3(Cc3ccccc3)C2)cc1` (racemic), the inhibition constant (Ki) in data set [1] is 137 nM.

With `Cc1ccc(S(=O)(=O)N2CCC3=CC(=O)CCC3(Cc3ccccc3)C2)cc1` (racemic), in data set [1], the inhibitory constant (Ki) came to 99 nM.

For `CC(=O)Nc1ccc(CC23CCC(=O)C=C2CCN(S(=O)(=O)c2ccc(C(C)(C)C)cc2)C3)cc1` (racemic), the figures for the Ki in data set [1] and in data set [2] were 56 nM and above 1000 nM, respectively.

On to `CC(C)(C)c1ccc(S(=O)(=O)N2CCC3=CC(=O)CCC3(Cc3ccc(F)cc3)C2)cc1` (racemic), for which the inhibitory constant (Ki) in data set [1] was 5 nM; in data set [2] it was above 1000 nM.

Take `COc1ccc(CC23CCC(=O)C=C2CCN(S(=O)(=O)c2ccc(C(C)(C)C)cc2)C3)cc1` (racemic): the values for the inhibitory constant (Ki) in data set [1] and in data set [2] were 6 nM and 230 nM, respectively.

On to `O=C1C=C2CCN(C(=O)c3ccccc3)CC2(Cc2ccccc2)CC1` (racemic), for which the Ki in data set [1] was above 10000 nM.
